From the kinase profiling compilation of Christmann-Franck et al. (2016)

Tests used:
Experiment in all cases: radiometric filter-binding kinase assay, Kinase HotSpot
Conditions in all cases: compound 0.5 µM; ATP 10 µM
FLT1 (human) = FLT1 (human) (UniProt P17948)
MUSK (human) = MUSK (human) (UniProt O15146)
PHKG1 (human) = PHKG1 (human) (UniProt Q16816)
LCK (human) = LCK (human) (UniProt P06239)
HIPK2 (human) = HIPK2 (human) (UniProt Q9H2X6)
ZAP70 (human) = ZAP70 (human) (UniProt P43403)
PAK4 (human) = PAK4 (human) (UniProt O96013)
NLK (human) = NLK (human) (UniProt Q9UBE8)
DYRK3 (human) = DYRK3 (human) (UniProt O43781)
GSK3A (human) = GSK3A (human) (UniProt P49840)
ROS1 (human) = ROS1 (human) (UniProt P08922)
SRC (human) = SRC (human) (UniProt P12931)
EPHA3 (human) = EPHA3 (human) (UniProt P29320)
GRK7 (human) = GRK7 (human) (UniProt Q8WTQ7)
STK39 (human) = STK39 (human) (UniProt Q9UEW8)
CAMK4 (human) = CAMK4 (human) (UniProt Q16566)
TAOK2 (human) = TAOK2 (human) (UniProt Q9UL54)
CDK4 CCND3 (human) = CDK4 CCND3 (human) (UniProt P30281+P11802)
STK33 (human) = STK33 (human) (UniProt Q9BYT3)
ACVRL1 (human) = ACVRL1 (human) (UniProt P37023)
EPHA7 (human) = EPHA7 (human) (UniProt Q15375)
MINK1 (human) = MINK1 (human) (UniProt Q8N4C8)
CSF1R (human) = CSF1R (human) (UniProt P07333)
CAMK1D (human) = CAMK1D (human) (UniProt Q8IU85)
GSG2 (human) = GSG2 (human) (UniProt Q8TF76)
PKN2 (human) = PKN2 (human) (UniProt Q16513)
TSSK1B (human) = TSSK1B (human) (UniProt Q9BXA7)
MST1R (human) = MST1R (human) (UniProt Q04912)
AKT1 (human) = AKT1 (human) (UniProt P31749)
PRKCZ (human) = PRKCZ (human) (UniProt Q05513)
MAPKAPK5 (human) = MAPKAPK5 (human) (UniProt Q8IW41)
TAOK1 (human) = TAOK1 (human) (UniProt Q7L7X3)
OXSR1 (human) = OXSR1 (human) (UniProt O95747)
ALK (human) = ALK (human) (UniProt Q9UM73)
FRK (human) = FRK (human) (UniProt P42685)
NEK9 (human) = NEK9 (human) (UniProt Q8TD19)
RPS6KA6 KD1 KD2 (human) = RPS6KA6 KD1 KD2 (human) (UniProt Q9UK32)
EPHA1 (human) = EPHA1 (human) (UniProt P21709)
MAP4K5 (human) = MAP4K5 (human) (UniProt Q9Y4K4)
MARK1 (human) = MARK1 (human) (UniProt Q9P0L2)
TEC (human) = TEC (human) (UniProt P42680)
MAPKAPK3 (human) = MAPKAPK3 (human) (UniProt Q16644)

GSK3A (human), sequence (P49840 whole entry, looked up): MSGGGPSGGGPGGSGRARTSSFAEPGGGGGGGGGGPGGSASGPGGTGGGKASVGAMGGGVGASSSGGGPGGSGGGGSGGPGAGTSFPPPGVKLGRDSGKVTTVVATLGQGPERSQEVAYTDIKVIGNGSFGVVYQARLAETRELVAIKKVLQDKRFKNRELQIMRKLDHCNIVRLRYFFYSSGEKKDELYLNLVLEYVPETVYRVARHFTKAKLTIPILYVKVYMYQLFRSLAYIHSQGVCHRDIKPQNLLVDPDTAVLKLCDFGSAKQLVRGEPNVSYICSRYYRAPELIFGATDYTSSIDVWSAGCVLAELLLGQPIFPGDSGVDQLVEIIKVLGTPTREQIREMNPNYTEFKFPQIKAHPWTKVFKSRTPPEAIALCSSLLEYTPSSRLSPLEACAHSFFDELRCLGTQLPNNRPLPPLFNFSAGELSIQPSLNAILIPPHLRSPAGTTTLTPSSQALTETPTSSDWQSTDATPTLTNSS
CSF1R (human), sequence (P07333 whole entry, looked up): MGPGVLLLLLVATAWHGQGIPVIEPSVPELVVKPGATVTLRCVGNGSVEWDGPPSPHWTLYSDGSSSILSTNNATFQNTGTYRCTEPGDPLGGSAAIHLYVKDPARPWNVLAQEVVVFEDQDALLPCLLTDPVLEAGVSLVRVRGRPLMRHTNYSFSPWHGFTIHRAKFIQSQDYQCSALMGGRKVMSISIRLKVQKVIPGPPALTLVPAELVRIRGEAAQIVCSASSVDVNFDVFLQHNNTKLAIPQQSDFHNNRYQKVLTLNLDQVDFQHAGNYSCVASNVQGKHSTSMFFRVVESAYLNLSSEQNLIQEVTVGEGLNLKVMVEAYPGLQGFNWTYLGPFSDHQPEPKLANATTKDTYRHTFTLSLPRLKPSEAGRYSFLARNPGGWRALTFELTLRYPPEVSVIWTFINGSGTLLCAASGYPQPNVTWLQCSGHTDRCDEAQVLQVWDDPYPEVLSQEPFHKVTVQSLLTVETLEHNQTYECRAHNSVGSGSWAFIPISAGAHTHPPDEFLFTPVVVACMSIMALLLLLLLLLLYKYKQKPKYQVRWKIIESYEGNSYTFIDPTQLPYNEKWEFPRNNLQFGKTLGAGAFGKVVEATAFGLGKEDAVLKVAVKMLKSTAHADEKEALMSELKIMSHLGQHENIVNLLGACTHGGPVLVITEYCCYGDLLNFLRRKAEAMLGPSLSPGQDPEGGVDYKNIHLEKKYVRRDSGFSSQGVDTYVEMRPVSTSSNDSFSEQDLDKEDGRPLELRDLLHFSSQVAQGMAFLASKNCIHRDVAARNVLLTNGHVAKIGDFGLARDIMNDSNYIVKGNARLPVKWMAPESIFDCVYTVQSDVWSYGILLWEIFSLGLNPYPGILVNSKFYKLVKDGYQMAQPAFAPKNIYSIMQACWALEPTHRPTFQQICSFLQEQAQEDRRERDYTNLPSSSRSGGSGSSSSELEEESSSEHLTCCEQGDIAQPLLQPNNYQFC
CAMK1D (human), sequence (Q8IU85 whole entry, looked up): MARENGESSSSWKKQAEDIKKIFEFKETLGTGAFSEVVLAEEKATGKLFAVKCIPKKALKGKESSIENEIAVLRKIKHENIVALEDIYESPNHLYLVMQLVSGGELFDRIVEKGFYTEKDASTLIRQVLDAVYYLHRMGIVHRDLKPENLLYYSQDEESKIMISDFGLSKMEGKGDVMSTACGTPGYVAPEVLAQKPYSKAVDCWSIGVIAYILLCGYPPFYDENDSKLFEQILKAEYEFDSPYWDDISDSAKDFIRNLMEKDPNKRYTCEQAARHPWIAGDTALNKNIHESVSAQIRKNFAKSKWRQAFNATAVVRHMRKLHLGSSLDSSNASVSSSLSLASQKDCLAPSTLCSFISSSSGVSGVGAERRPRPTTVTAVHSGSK
STK33 (human), sequence (Q9BYT3 whole entry, looked up): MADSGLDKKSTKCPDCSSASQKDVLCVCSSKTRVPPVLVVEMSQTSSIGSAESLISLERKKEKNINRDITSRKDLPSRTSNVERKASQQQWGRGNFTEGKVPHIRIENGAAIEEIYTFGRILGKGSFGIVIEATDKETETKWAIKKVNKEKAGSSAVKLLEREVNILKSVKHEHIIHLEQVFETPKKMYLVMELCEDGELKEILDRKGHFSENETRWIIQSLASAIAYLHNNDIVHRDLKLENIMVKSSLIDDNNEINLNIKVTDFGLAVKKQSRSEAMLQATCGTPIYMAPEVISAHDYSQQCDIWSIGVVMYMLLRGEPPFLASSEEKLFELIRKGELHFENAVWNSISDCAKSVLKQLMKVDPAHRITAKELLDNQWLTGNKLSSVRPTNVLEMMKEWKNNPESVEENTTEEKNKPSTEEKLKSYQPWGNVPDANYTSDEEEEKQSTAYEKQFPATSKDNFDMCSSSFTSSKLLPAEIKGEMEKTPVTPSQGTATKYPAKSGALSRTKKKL
SRC (human), sequence (P12931 whole entry, looked up): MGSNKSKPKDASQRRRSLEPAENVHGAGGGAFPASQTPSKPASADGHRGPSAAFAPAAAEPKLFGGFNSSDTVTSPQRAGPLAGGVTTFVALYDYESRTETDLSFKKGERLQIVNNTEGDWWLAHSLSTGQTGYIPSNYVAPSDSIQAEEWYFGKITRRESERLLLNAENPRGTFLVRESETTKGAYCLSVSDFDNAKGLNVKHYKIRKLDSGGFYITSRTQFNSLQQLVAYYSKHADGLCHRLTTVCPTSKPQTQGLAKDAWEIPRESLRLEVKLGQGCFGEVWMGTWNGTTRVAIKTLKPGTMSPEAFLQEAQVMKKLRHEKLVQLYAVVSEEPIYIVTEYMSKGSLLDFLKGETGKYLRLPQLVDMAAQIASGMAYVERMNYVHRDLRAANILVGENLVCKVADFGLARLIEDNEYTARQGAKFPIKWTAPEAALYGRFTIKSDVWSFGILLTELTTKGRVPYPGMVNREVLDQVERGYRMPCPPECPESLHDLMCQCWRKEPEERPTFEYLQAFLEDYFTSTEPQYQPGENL
LCK (human), sequence (P06239 whole entry, looked up): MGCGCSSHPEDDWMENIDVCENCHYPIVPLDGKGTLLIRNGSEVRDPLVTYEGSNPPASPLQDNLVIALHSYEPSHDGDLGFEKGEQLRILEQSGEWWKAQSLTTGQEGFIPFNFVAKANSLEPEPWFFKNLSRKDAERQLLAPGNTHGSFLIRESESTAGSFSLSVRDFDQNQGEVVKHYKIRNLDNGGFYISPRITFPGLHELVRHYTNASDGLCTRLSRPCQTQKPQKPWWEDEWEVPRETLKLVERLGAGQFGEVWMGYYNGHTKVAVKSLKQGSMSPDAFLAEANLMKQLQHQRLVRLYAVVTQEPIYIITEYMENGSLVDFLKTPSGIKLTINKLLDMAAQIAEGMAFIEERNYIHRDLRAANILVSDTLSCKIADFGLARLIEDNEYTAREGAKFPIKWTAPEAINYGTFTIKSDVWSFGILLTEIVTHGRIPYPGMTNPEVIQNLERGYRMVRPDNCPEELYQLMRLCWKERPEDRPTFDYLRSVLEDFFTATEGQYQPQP
PRKCZ (human), sequence (Q05513 whole entry, looked up): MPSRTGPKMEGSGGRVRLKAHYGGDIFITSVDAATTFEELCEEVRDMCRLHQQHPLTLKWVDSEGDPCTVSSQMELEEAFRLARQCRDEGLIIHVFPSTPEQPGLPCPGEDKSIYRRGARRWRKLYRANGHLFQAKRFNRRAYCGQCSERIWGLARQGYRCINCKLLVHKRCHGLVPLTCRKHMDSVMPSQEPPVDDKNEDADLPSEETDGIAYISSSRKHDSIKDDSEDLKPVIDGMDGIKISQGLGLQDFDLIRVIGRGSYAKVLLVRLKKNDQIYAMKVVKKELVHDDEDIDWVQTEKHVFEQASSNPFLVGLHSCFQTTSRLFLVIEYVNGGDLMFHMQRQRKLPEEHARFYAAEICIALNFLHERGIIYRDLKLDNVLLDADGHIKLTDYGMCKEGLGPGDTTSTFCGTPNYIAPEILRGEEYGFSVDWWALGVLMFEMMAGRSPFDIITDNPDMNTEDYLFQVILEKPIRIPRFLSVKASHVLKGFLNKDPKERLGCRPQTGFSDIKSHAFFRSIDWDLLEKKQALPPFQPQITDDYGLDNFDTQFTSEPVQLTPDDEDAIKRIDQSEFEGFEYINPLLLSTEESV
ZAP70 (human), sequence (P43403 whole entry, looked up): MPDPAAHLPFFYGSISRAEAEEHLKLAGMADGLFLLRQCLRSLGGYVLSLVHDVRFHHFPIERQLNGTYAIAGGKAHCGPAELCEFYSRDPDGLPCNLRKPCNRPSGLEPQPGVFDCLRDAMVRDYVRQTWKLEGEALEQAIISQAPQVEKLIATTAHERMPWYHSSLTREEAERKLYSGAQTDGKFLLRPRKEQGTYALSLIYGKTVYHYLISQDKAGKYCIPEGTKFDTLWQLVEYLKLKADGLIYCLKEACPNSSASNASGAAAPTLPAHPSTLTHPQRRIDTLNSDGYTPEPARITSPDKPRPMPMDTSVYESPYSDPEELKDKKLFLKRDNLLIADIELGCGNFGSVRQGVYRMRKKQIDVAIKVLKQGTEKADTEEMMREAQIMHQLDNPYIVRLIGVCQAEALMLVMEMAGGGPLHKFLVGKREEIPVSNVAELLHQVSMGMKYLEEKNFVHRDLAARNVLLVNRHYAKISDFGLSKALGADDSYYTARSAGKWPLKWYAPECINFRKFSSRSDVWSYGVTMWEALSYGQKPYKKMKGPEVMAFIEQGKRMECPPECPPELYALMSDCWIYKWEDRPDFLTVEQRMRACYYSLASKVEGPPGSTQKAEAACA
PHKG1 (human), sequence (Q16816 whole entry, looked up): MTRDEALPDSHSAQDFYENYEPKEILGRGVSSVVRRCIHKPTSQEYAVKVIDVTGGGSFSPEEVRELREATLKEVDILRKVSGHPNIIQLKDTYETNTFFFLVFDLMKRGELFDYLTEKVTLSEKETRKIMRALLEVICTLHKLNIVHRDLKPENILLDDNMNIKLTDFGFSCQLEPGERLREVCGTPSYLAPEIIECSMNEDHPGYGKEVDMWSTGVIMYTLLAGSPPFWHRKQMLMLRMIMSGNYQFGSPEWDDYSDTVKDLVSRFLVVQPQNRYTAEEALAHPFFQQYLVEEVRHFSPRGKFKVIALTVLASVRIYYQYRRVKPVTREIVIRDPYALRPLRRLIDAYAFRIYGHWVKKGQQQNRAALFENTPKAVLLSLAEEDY

In the case of NC(=O)c1ccc(N(C(N)=O)c2c(F)cccc2F)nc1-c1ccc(F)cc1F, the residual activity (FLT1 (human)) is reported as 102%, the residual activity (MUSK (human)) is reported as 102% and the residual activity (PHKG1 (human)) is reported as 92%. The residual activity (LCK (human)) was 86.3%, the residual activity (HIPK2 (human)) was 100% and the residual activity (ZAP70 (human)) was 100%. The residual activity (PAK4 (human)) was 92.6%, the residual activity (NLK (human)) was 15.8% and the residual activity (DYRK3 (human)) was 105%. The residual activity (GSK3A (human)) was 98.6%, the residual activity (ROS1 (human)) was 95% and the residual activity (SRC (human)) was 109%. The residual activity (EPHA3 (human)) was 97%, the residual activity (GRK7 (human)) was 108% and the residual activity (STK39 (human)) was 93.7%. The residual activity (CAMK4 (human)) was 91.9%, the residual activity (TAOK2 (human)) was 98.7% and the residual activity (CDK4 CCND3 (human)) was 98.4%. For the same compound, the residual activity (STK33 (human)) was 94%, the residual activity (ACVRL1 (human)) was 99.3% and the residual activity (EPHA7 (human)) was 79.9%. It also gave a residual activity (MINK1 (human)) of 100%, a residual activity (CSF1R (human)) of 109% and a residual activity (CAMK1D (human)) of 114%. For the same compound, the residual activity (GSG2 (human)) was 81.3%, the residual activity (PKN2 (human)) was 99.7% and the residual activity (TSSK1B (human)) was 83%. It also gave a residual activity (MST1R (human)) of 90.1%, a residual activity (AKT1 (human)) of 84.7% and a residual activity (PRKCZ (human)) of 89.9%. For the same compound, the residual activity (MAPKAPK5 (human)) was 93.4%, the residual activity (TAOK1 (human)) was 96.2% and the residual activity (OXSR1 (human)) was 96.9%. It also gave a residual activity (ALK (human)) of 99.6%, a residual activity (FRK (human)) of 106% and a residual activity (NEK9 (human)) of 104%. For the same compound, the residual activity (RPS6KA6 KD1 KD2 (human)) was 101%, the residual activity (EPHA1 (human)) was 99.1% and the residual activity (MAP4K5 (human)) was 98.3%. It also gave a residual activity (MARK1 (human)) of 132%, a residual activity (TEC (human)) of 114% and a residual activity (MAPKAPK3 (human)) of 99.1%.
With CC(C)n1cnc2c(Nc3cccc(Cl)c3)nc(NCCO)nc21 the residual activity (FLT1 (human)) was 93.4%, the residual activity (MUSK (human)) was 58.6% and the residual activity (PHKG1 (human)) was 75.8%. The residual activity (LCK (human)) was 84.9%, the residual activity (HIPK2 (human)) was 93.3% and the residual activity (ZAP70 (human)) was 98.3%. For the same compound, the residual activity (PAK4 (human)) was 105%, the residual activity (NLK (human)) was 102% and the residual activity (DYRK3 (human)) was 97.2%. The residual activity (GSK3A (human)) was 103%, the residual activity (ROS1 (human)) was 102% and the residual activity (SRC (human)) was 68.9%. The residual activity (EPHA3 (human)) was 90.3%, the residual activity (GRK7 (human)) was 88.7% and the residual activity (STK39 (human)) was 100%. It also gave a residual activity (CAMK4 (human)) of 101%, a residual activity (TAOK2 (human)) of 97.2% and a residual activity (CDK4 CCND3 (human)) of 93.3%. It also gave a residual activity (STK33 (human)) of 68.1%, a residual activity (ACVRL1 (human)) of 103% and a residual activity (EPHA7 (human)) of 87.1%. It also gave a residual activity (MINK1 (human)) of 86.3%, a residual activity (CSF1R (human)) of 94.8% and a residual activity (CAMK1D (human)) of 98.1%. For the same compound, the residual activity (GSG2 (human)) was 94.7%, the residual activity (PKN2 (human)) was 90.8% and the residual activity (TSSK1B (human)) was 91.9%. It also gave a residual activity (MST1R (human)) of 101%, a residual activity (AKT1 (human)) of 103% and a residual activity (PRKCZ (human)) of 97.8%. The residual activity (MAPKAPK5 (human)) was 68.6%, the residual activity (TAOK1 (human)) was 94.4% and the residual activity (OXSR1 (human)) was 97.7%. It also gave a residual activity (ALK (human)) of 91.8%, a residual activity (FRK (human)) of 94.2% and a residual activity (NEK9 (human)) of 81.1%. It also gave a residual activity (RPS6KA6 KD1 KD2 (human)) of 74.8%, a residual activity (EPHA1 (human)) of 94.1% and a residual activity (MAP4K5 (human)) of 81.5%. The residual activity (MARK1 (human)) was 87.6%, the residual activity (TEC (human)) was 113% and the residual activity (MAPKAPK3 (human)) was 91%.
Cc1ccc(NC(=O)c2ccc(CN3CCN(C)CC3)cc2)cc1Nc1nc(-c2cccnc2)cs1 was tested, and the residual activity (FLT1 (human)) was 96.4%, the residual activity (MUSK (human)) was 99% and the residual activity (PHKG1 (human)) was 92.2%. The residual activity (LCK (human)) was 7.63%, the residual activity (HIPK2 (human)) was 90.8% and the residual activity (ZAP70 (human)) was 112%. The residual activity (PAK4 (human)) was 103%, the residual activity (NLK (human)) was 106% and the residual activity (DYRK3 (human)) was 108%. It also gave a residual activity (GSK3A (human)) of 101%, a residual activity (ROS1 (human)) of 91.5% and a residual activity (SRC (human)) of 80%. The residual activity (EPHA3 (human)) was 90.3%, the residual activity (GRK7 (human)) was 104% and the residual activity (STK39 (human)) was 94%. The residual activity (CAMK4 (human)) was 98.6%, the residual activity (TAOK2 (human)) was 91.6% and the residual activity (CDK4 CCND3 (human)) was 115%. For the same compound, the residual activity (STK33 (human)) was 91.1%, the residual activity (ACVRL1 (human)) was 103% and the residual activity (EPHA7 (human)) was 99.7%. For the same compound, the residual activity (MINK1 (human)) was 86.7%, the residual activity (CSF1R (human)) was 8.38% and the residual activity (CAMK1D (human)) was 110%. It also gave a residual activity (GSG2 (human)) of 100%, a residual activity (PKN2 (human)) of 108% and a residual activity (TSSK1B (human)) of 100%. It also gave a residual activity (MST1R (human)) of 104%, a residual activity (AKT1 (human)) of 93.2% and a residual activity (PRKCZ (human)) of 103%. It also gave a residual activity (MAPKAPK5 (human)) of 103%, a residual activity (TAOK1 (human)) of 98.5% and a residual activity (OXSR1 (human)) of 95.6%. It also gave a residual activity (ALK (human)) of 103%, a residual activity (NEK9 (human)) of 98.6% and a residual activity (RPS6KA6 KD1 KD2 (human)) of 103%. The residual activity (EPHA1 (human)) was 96.5%, the residual activity (MAP4K5 (human)) was 97% and the residual activity (MARK1 (human)) was 86.9%. The residual activity (TEC (human)) was 83.2% and the residual activity (MAPKAPK3 (human)) was 97.9%.
